These results are taken from patent publication US6696409B1 (priority 1996, dated 2004).

Marks after values point to notes of the source that are not given here.

As usually defined, the IC50 is the concentration that inhibits the measured activity by half.

The target in assay [1] is T1, Y1 receptors (Rattus norvegicus, UniProt P21555).
T1 construct: from tissue; host or cells: anaesthetised Wistar rat, vasculature (in vivo)
T1 sequence (P21555 1-382): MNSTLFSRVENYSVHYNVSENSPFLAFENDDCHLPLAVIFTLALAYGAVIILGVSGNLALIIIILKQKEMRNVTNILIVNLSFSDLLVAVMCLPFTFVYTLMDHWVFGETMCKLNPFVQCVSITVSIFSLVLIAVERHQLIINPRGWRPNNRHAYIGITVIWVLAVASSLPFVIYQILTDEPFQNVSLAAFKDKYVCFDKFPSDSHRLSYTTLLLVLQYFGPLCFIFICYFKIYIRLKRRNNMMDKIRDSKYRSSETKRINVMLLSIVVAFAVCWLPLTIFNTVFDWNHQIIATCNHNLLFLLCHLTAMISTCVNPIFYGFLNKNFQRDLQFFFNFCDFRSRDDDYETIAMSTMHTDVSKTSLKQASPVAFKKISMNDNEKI
Put plainly: Pressor response (increase in blood pressure) in anaesthetised rats (postjunctional activity). The assay is classed as in vivo. The method, then: Experiments were carried out on adult rats (Wistar) of both sexes (250-350 g), anaesthetised with sodium pentobarbitone (Nembutal, Boehringer-Ingleheim; 60 mg/kg, i.p.). The trachea was cannulated and the animal artificially ventilated. The femoral vein was cannulated for administration of peptides and further doses of anaesthetic. The left femoral artery was cannulated to record arterial pressure. Both vagus nerves were cut. […] The electrocardiogram was measured using needle electrodes and monitored on one channel of an osciloscope. Pulse interval (the period between successive beats of the heart) was recorded beat-by-beat by triggering from ECG. Pulse interval and arterial pressure were recorded on the pen recorder.
Dose-response curves were constructed from group data for all rats. Because of the long time-course of action of the peptides tested, not all peptides were given to each rat.
As an indication of prejunctional activity two parameters were measured; the maximum percent inhibition of the increase in pulse interval evoked by stimulation of the vagus nerve following injection of peptide and the time to half recovery of this effect (T50). For pressor action, an indicator of postjunctional activity, two parameters were also measured; the peak pressor response following injection of peptide and the duration of the increase in blood pressure. […] Results were analysed using a one-way ANOVA.

In assay [2] the target is T2, human Y2 receptor (Homo sapiens, UniProt P49146).
T2 construct: host or cells: SMS-MSN cells (thawed, needle-disrupted cells)
T2 sequence (P49146 1-381): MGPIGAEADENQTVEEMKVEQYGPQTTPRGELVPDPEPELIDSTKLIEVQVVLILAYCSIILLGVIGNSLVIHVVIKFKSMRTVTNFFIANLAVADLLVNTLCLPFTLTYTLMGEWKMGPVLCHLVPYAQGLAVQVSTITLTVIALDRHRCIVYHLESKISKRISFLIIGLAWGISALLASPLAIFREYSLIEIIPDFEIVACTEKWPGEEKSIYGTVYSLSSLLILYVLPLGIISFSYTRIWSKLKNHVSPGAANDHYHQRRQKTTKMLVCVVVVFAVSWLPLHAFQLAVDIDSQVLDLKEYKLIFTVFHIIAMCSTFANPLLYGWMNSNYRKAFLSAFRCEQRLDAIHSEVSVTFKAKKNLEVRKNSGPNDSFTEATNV
Put plainly: [125I]NPY receptor binding assay on SMS-MSN cells. On the procedure: (§1) SK-N-MC cells expressing the human Y1 receptor and SMS-MSN cells expressing the human Y2 receptor were obtained from the ATCC. They were cultured in 1:1 DMEM:Ham's F12 medium (ICN) containing 10% fetal calf serum, 0.1% non-essential amino acids, 0.2 mM glutamine, and 0.056% sodium bicarbonate. Confluent cells were harvested in scraping and pellets were stored at −80° C. On the day of use cells were thawed, washed once in binding buffer salts, passed several times through a 22 ga. needle, and the protein content was assayed using bicinchoninic acid (BCA kit, Pierce).
(§2) Just before use, plates were filtered and washed twice with 50 mM Tris-HCI pH 7.4/0.1% BSA. […] Binding was terminated by filtration. Filters were washed twice by rapid filtration with […] volumes of 50 mM Tris-HCI pH 7.4/0.1% BSA at 2° C., and counted on an LKB gamma counter. Specific binding was analysed by non-linear regression using a single-site fitting function (Graphpad Prism). Non-specific binding was defined by binding in the presence of 1 μM competitor.

The target of assay [3] is T3, neuropeptide Y Y2 receptor subtype (Homo sapiens, UniProt P49146).
T3 construct: host or cells: SMS-KAN human neuroblastoma cells
T3 sequence (P49146 1-381): T2 sequence (P49146 1-381)
The conditions noted are these: SMS-KAN cells; cited from earlier work.

The target in assay [4] is T4, human neuropeptide Y Y1 receptor (Homo sapiens, UniProt P25929).
T4 sequence (P25929 1-384): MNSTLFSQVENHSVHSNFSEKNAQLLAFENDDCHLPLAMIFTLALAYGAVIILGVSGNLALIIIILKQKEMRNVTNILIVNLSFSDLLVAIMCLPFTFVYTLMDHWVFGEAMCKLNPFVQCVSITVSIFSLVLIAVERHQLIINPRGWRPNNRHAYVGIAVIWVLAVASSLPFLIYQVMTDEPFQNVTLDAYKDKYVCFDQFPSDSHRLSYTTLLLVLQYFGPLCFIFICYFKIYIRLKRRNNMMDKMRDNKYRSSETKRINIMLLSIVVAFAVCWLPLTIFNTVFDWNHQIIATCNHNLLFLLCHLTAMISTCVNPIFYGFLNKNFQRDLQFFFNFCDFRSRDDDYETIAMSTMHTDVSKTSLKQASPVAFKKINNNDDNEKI
The conditions noted are these: fibroblast cells; cited from earlier work.

Assay [5] has as its target T5, neuropeptide Y Y1 receptor type (Homo sapiens, UniProt P25929).
T5 construct: host or cells: SK-N-MC human cells
T5 sequence (P25929 1-384): T4 sequence (P25929 1-384)
Particulars: SK-N-MC cells; cited from earlier work.

For assay [6], the system named is Y2-like receptors mediating inhibition of transmitter release from renal nerves. Put plainly: Increase of renal vascular resistance elicited by renal sympathetic nerve stimulation. The conditions noted are these: 40 nmol dose; FIG. 1. Format: in vivo, dog. On the procedure:
Experiments were carried out in six, adult, mongrel dogs of both sexes weighing between 18 and 26 kg. The dogs were anaesthetised with a bolus injection of sodium pentobarbitone (36 mg/kg intravenous; Nembutal, Boehringer Ingelheim) and then maintained on an infusion (2-3 mg/kg/hr). The animal was artificially ventilated, maintained at constant temperature and blood pressure and heart rate were monitored continuously.
The left kidney was exposed retroperitoneally and renal arterial blood flow was monitored continuously (Pernow & Lundberg, 1989a), using a transonic flow probe (Transonic System Inc., N.Y.). Postganglionic nerves to the kidney were isolated, cut and placed over bipolar, platinum electrodes for stimulation (1-10 Hz, 5-10 V, 1-5 msec).
The renal nerve was stimulated over a range of frequencies (1-10 Hz) for 30 secs and a frequency-response curve constructed. The responses were measured at the peak change in flow. […] Responses were reported as change in vascular resistance.

In assay [7] the target is T6, Y2-like receptors (Rattus norvegicus, UniProt Q9ERC0).
T6 construct: from tissue; host or cells: anaesthetised Wistar rat, cardiac vagal nerve endings (in vivo)
T6 sequence (Q9ERC0 1-381): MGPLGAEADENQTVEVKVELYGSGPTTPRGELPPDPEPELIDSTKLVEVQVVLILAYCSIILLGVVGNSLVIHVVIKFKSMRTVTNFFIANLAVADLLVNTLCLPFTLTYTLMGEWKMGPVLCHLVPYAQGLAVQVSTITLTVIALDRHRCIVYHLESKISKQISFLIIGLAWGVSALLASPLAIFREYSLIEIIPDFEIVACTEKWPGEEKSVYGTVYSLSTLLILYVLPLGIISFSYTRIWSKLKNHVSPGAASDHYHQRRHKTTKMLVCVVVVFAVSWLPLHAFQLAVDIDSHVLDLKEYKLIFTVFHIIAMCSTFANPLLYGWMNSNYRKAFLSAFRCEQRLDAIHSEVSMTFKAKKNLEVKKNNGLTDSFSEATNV
Put plainly: Inhibition of the vagally evoked increase in pulse interval in anaesthetised rats (prejunctional activity). Format: in vivo. The conditions noted are these: compared with Ac[Leu28,Leu31]NPY(24-36). The method, then: Experiments were carried out on adult rats (Wistar) of both sexes (250-350 g), anaesthetised with sodium pentobarbitone (Nembutal, Boehringer-Ingleheim; 60 mg/kg, i.p.). The trachea was cannulated and the animal artificially ventilated. The femoral vein was cannulated for administration of peptides and further doses of anaesthetic. The left femoral artery was cannulated to record arterial pressure. Both vagus nerves were cut. […] The frequency was chosen to increase pulse interval by approximately 100 ms, a submaximal effect on this variable. The electrocardiogram was measured using needle electrodes and monitored on one channel of an osciloscope. Pulse interval (the period between successive beats of the heart) was recorded beat-by-beat by triggering from ECG. Pulse interval and arterial pressure were recorded on the pen recorder.
Dose-response curves were constructed from group data for all rats. Because of the long time-course of action of the peptides tested, not all peptides were given to each rat. Usually however, each rat received neuropeptide Y and two other peptides.
As an indication of prejunctional activity two parameters were measured; the maximum percent inhibition of the increase in pulse interval evoked by stimulation of the vagus nerve following injection of peptide and the time to half recovery of this effect (T50). For pressor action, an indicator of postjunctional activity, two parameters were also measured; the peak pressor response following injection of peptide and the duration of the increase in blood pressure. These indices give a reliable measure of the actions of a peptide at pre- and postjunctional sites, and have been used previously in this laboratory for this purpose; Potter et al., 1989; Potter et al., 1991). Results were analysed using a one-way ANOVA.

Assay [8] deals with T7, human Y1 receptor (Homo sapiens, UniProt P25929).
T7 construct: host or cells: SK-N-MC cells (thawed, needle-disrupted cells)
T7 sequence (P25929 1-384): T4 sequence (P25929 1-384)
Briefly: [125I]NPY receptor binding assay on SK-N-MC cells. On the procedure: as §1, §2

Where [9] appears, read: anaesthetised rats, †: No response to 10 nmole dose.

On to “Ac-LRHALNLLTRQRY-NH2 [Ac[A27,L28,L31]NPY24-36]”, for which, in assay [1] (setting [9]), the “Increase in BP (rel to NPY)” value is reported as 0†. The same measure, in the same setting: to “Ac-LAHYLNLLTRQRY-NH2 [Ac[A25,L28,L31]NPY24-36]” belongs 0†. Regarding “Ac-ARHYLNLLTRQRY-NH2 [Ac[A24,L28,L31]NPY24-36]”, the IC50 in assay [2] was 19.3 nM. The “Increase in BP (rel to NPY)” value in assay [1] (setting [9]) was 0†. Turning to “Ac-LRHYLALLTRQRY-NH2 [Ac[L28,A29,L31]NPY24-36]”, in assay [1] (setting [9]), the “Increase in BP (rel to NPY)” value is reported as 0†.

On to “Ac-LRHYLNLLTRQRY-NH2 [Ac[L28,L31]NPY24-36] [listing 1 of 2 here]”, for which, in assay [3], the “Affinity for the neuropeptide Y Y2 receptor subtype, in words” value is recorded as “significant affinity”. In assay [1] (rat, in vivo), the “Increase in BP (rel to NPY)” value is given as 0†. Moreover, the “Stimulation of the Y1 receptor to induce an increase in cytosolic calcium” value in assay [4] is given as “did not stimulate”. Besides, the “Affinity for the neuropeptide Y Y1 receptor type, in words” value in assay [5] is listed as “no affinity”. Consider “Ac-LRHYANLLTRQRY-NH2 [Ac[A28,L31]NPY24-36]”, for which, in assay [1] (setting [9]), the “Increase in BP (rel to NPY)” value was 0†. In the case of AcNPY24-36 [reference compound], the “Increase in BP (rel to NPY)” value in assay [1] (setting [9]) is 0†.

As to “Ac-LRHYLNLATRQRY-NH2 [Ac[L28,A31]NPY24-36]”, the “Increase in BP (rel to NPY)” value in assay [1] (setting [9]) is given as 0†. In the case of “Ac-ARHALNLLTRQRY-NH2 [Ac[A24,A27,L28,L31]NPY24-36]”, in assay [2], the “Affinity for NPY Y2 receptors, in words” value is reported as “high affinity for NPY Y2 receptors”. Also, in assay [1] (40 nmol dose), the “Direct effect on the circulation” value is listed as “no direct effect on the circulation”. The “Increase in BP (rel to NPY)” value in assay [1] (setting [9]) is 0†. Moreover, the “Inhibition of the increase of renal vascular resistance elicited by renal nerve stimulation” value in assay [6] is “almost completely inhibited the effect of nerve stimulation”. The “Inhibition of the effect of vagal stimulation on heart rate, in words” value (“Inhibition of the effect … in words” for short) in assay [7] is given as “enhanced in vivo activity at Y2 receptors”. Take “Ac-LRHYLNALTRQRY-NH2 [Ac[L28,A30,L31]NPY24-36]”: in assay [1] (setting [9]), the “Increase in BP (rel to NPY)” value is given as 0†. On to “Ac-ARAALNAATRQRY-NH2 [Ac[A24,26,27,30,31,L28]NPY24-36]”, for which the IC50 in assay [8] is above 1000 nM. Moreover, the “Increase in BP (rel to NPY)” value in assay [1] (setting [9]) is on record as 0†. Besides, the “Inhibition of the effect … in words” value in assay [7] is “enhanced in vivo activity at Y2 receptors”. Take “Ac-LRAYLNLLTRQRY-NH2 [Ac[A26,L28,L31]NPY24-36]”: the “Increase in BP (rel to NPY)” value in assay [1] (setting [9]) is reported as 0†.

Take “Ac-LRHYLNLLTRQRY-NH2 [Ac[L28,L31]NPY24-36] [listing 2 of 2 here]”: the IC50 in assay [8] is above 100 nM.

On to “Ac[A26,27,L28,31]NPY24-36 (Ac-LRAALNLLTRQRY-NH2; ends and bridges not checked)”, for which, in assay [7], the “Inhibition of the effect … in words” value is reported as “enhanced in vivo activity at Y2 receptors”. Take “Ac[L28,I30]NPY24-36 (Ac-LRHYLNIITRQRY-NH2; ends and bridges not checked; UniProt P01303 52-64, looked up, variant I28L L30I)”: in assay [1] (setting [9]), the “Increase in BP (rel to NPY)” value was 0†.

For the substance “Ac-LRHYLNLLARQRY-NH2 [Ac[L28,L31,A32]NPY24-36]”, the “Increase in BP (rel to NPY)” value in assay [1] (setting [9]) is reported as 0†. Turning to “Ac-LAHYRNLLTRQRY-NH2 [Ac[A25,R28,L31]NPY24-36]”, in assay [1] (setting [9]), the “Increase in BP (rel to NPY)” value is on record as 0†.
